Experimental findings from PubChem BioAssay (NCI) are described below.

Common to all, as to assay: NCI tumour cell line growth inhibition, 48 h
In assay [1] the test system is HS 578T breast.
Assay [2] deals with K-562 leukemia.
Assay [3] deals with MALME-3M melanoma.
Assay [4] relates to MDA-MB-231 breast.
For assay [5], the system named is MDA-MB-435.
The subject of assay [6] is MOLT-4 leukemia.
The subject of assay [7] is NCI-H460 lung.
The subject of assay [8] is OVCAR-5 ovarian.
Assay [9] relates to SN12C renal.
The subject of assay [10] is UO-31 renal.

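Dose response: 5 concentrations. Exposure: 48 h. Format: 96-well plates. Endpoint: linear interpolation; highest concentration if not reached. TGI: total growth inhibition.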 Some results are limits rather than exact numbers.

As to `C=C(C)[C@@H]1CCC2=C[C@H](CC(C)=CC3=CC(C)=C(O3)[C@@H]1OC)OC2=O`, the TGI in [1] was above 100 µM; in assay [2], above 100 µM; in assay [3] it was above 100 µM; in assay [4], 87.3 µM; in [5], above 100 µM; in assay [6], above 100 µM. Also, the TGI in assay [7], in assay [8], in assay [9] and in assay [10] was above 100 µM in each case.
Take `O=C1CCCC2=C1CC1=C(CCCC1=O)N2c1ccccc1`: the TGI in assay [1], in assay [2], in [6], in assay [7], in assay [8] and in assay [9] was above 100 µM in each case. The compound also yielded a TGI in assay [10] above 100 µM.
Consider `CC1C(=O)O[C@H]2C1CC[C@@]1(C)[C@H](O)CC[C@@]13C[C@]2(O)OO3` (some centres not stated), for which the TGI in [2], in assay [3], in assay [6], in assay [7], in [8] and in assay [9] was above 100 µM each time. The same compound yielded a TGI in assay [10] above 100 µM.
Consider `CCOC(=O)C(C(=O)OCC)=C1NC2(c3ccccc3Nc3ccc(C)cc32)C(C(=O)OC)S1` (configuration not stated), for which the TGI in assay [1] is 69.2 µM; in [2] it was above 100 µM; in assay [3] it was 63.5 µM; in assay [5], above 100 µM; in assay [6], above 100 µM; in [7], above 100 µM. Moreover, the values for the TGI in [8], in assay [9] and in assay [10] were above 100 µM, 18.2 µM and above 100 µM, respectively.
In the case of `CCOP(=O)(OCC)C1=NC=CC=CC1n1c(-c2ccccc2)nn(CC)c1=O` (configuration not stated), the TGI in [3], in assay [6], in assay [7] and in assay [9] was above 100 µM throughout.
Turning to `O=C(OCc1ccccc1)N1CCN(C(=O)OCc2ccccc2)CCN(C(=O)OCc2ccccc2)CCN(C(=O)OCc2ccccc2)CCN(C(=O)OCc2ccccc2)CC1`, the TGI in [1] is above 100 µM; in assay [3], 61.2 µM; in assay [4] it was above 100 µM; in [5] it was above 100 µM; in [6] it was above 100 µM; in assay [7], above 100 µM. Also, the TGI in assay [8], in [9] and in [10] was above 100 µM in each case.
On to `CC1(CC2=C(C(=O)NCCO[Si](C)(C)C(C)(C)C)C3(OCCO3)C2=O)OCCO1`, for which the TGI in assay [1] is above 100 µM; in assay [3] it was 72.7 µM; in assay [4] it was above 100 µM; in assay [5], above 100 µM; in assay [6], above 100 µM; in assay [7] it was above 100 µM. Also, the TGI in assay [8], in assay [9] and in assay [10] was above 100 µM throughout.
With `CC(=O)OCC1=C(C)C[C@H]([C@@H](COC(C)=O)C2CCC3C4C[C@H]5O[C@]56CC=CC(=O)[C@]6(C)C4CC[C@@]32C)OC1=O` (some centres not stated), the TGI in assay [1] was 17.8 µM; in [3] it was 0.963 µM; in [4] it was 1.91 µM; in assay [5] it was 0.721 µM; in assay [6], 0.233 µM; in assay [7] it was 2.91 µM. Also, the figures for the TGI in assay [8], in assay [9] and in assay [10] were 3.13 µM, 1.18 µM and 2.96 µM, respectively.
In the case of `NC1CC(=O)c2sccc21` (configuration not stated), the TGI in [1], in [2], in [4], in assay [5], in assay [6] and in [8] was above 100 µM in each case. In addition, the TGI in [9] and in assay [10] was above 100 µM throughout.
With `O=c1c2ccccc2[nH]c2cc(O)cc(O)c12`, the TGI in assay [2], in assay [3], in [6], in assay [7], in assay [9] and in [10] was above 100 µM each time.
As for `CC(C)OC(=O)[C@@H](O)[C@H](CO)C1=CC([Si](C)(C)c2ccccc2)=CON1`, the TGI in assay [2], in assay [4], in assay [5], in assay [6], in assay [7] and in assay [8] was above 100 µM in each case. In addition, the TGI in assay [10] is above 100 µM.
As to `O=C1C(NCCN2CCOCC2)=C(Cl)C(=O)c2ncccc21`, the TGI in [1] came out at 2.87 µM; in [3] it was 1.9 µM; in assay [4], 4.71 µM; in assay [5], 0.343 µM; in assay [6], 5.69 µM; in assay [7] it was 1.71 µM. The TGI in [8] was 3.18 µM; in assay [9], 2.74 µM; in assay [10], 2.33 µM.
On to `Cc1ccc(S(=O)(=O)NC(=O)NC(Cc2ccc(O)c(O)c2)C(=O)O)cc1` (configuration not stated), for which the TGI in assay [2], in [3], in assay [4], in assay [5], in assay [6] and in [7] was above 100 µM each time. Also, the TGI in assay [8], in assay [9] and in assay [10] was above 100 µM each time.
As for `COc1ccccc1NC(=O)O/N=C(/Cl)C(C)C`, the TGI in assay [1] was found to be 67.9 µM; in assay [2], 10.9 µM; in assay [3], 7.37 µM; in assay [4], 18.3 µM; in assay [6], 4.5 µM; in assay [7], 37.5 µM. Besides, the TGI worked out at 35.8 µM in assay [8], 31.7 µM in assay [9] and 32.8 µM in assay [10].
Regarding `CCCCCCC(C)OC(=O)/C=C(\CC(=O)OC(C)CCCCCC)C(=O)OC(C)CCCCCC` (configuration not stated), the TGI in assay [3], in assay [6], in [7], in assay [8], in [9] and in [10] was above 100 µM throughout.
For the compound `Nn1c(Cc2ccccc2)n[nH]c1=O`, the TGI in assay [1], in assay [2], in [3], in assay [4], in assay [5] and in assay [6] was above 100 µM each time. For the same compound, the TGI in assay [8], in assay [9] and in assay [10] was above 100 µM throughout.
